Tests used:
panel of 290 kinases = biological target: panel of 290 kinases; parameters: method as in PMID 18183025; conditions: cited from earlier work
EGFR [1] = biological target: T1, EGFR (Homo sapiens, UniProt P00533); assay: DiscoverX KINOMEscan competition binding assay; conditions: compound 10 µM; lower values = higher affinity; below 35% = significant binding
T1 construct: purchased DiscoverX (KINOMEscan service); host or cells: E. coli BL21-derived host (T7 phage) or HEK-293
Outline: (§1)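 Kinase binding measured by competition of test compound (10 µM) with an immobilized biotinylated ligand on streptavidin beads, 1 h at room temperature. Kinases were T7 phage-tagged or HEK-293-expressed and DNA-tagged. Bound kinase was eluted and quantified by qPCR; values are % of control, lower meaning stronger binding.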

VEGFR2 = biological target: T2, VEGFR2 (Homo sapiens, UniProt P35968); assay: DiscoverX KINOMEscan competition binding assay; conditions: compound 10 µM, lower values = higher affinity, below 35% = significant binding
T2 construct: purchased DiscoverX (KINOMEscan service); host or cells: E. coli BL21-derived host (T7 phage) or HEK-293
Outline: as §1

BRAF [2] = biological target: T3, BRAF (Homo sapiens, UniProt P15056); assay: DiscoverX KINOMEscan competition binding assay; conditions: compound 10 µM, lower values = higher affinity, below 35% = significant binding
T3 construct: purchased DiscoverX (KINOMEscan service); host or cells: E. coli BL21-derived host (T7 phage) or HEK-293
Outline: as §1

ErbB2 [3] = biological target: T4, ErbB2 (Homo sapiens, UniProt P04626); assay: DiscoverX KINOMEscan competition binding assay; conditions: compound 10 µM, lower values = higher affinity, below 35% = significant binding
T4 construct: purchased DiscoverX (KINOMEscan service); host or cells: E. coli BL21-derived host (T7 phage) or HEK-293
Outline: as §1

p38α = biological target: T5, p38α (Homo sapiens, UniProt Q16539); assay: DiscoverX KINOMEscan competition binding assay; conditions: compound 10 µM; lower values = higher affinity; below 35% = significant binding
T5 construct: purchased DiscoverX (KINOMEscan service); host or cells: E. coli BL21-derived host (T7 phage) or HEK-293
Outline: as §1

LCK = biological target: T6, LCK (Homo sapiens, UniProt P06239); assay: DiscoverX KINOMEscan competition binding assay; conditions: compound 10 µM; lower values = higher affinity; below 35% = significant binding
T6 construct: purchased DiscoverX (KINOMEscan service); host or cells: E. coli BL21-derived host (T7 phage) or HEK-293
Outline: as §1

MET = biological target: T7, MET (Homo sapiens, UniProt P08581); assay: DiscoverX KINOMEscan competition binding assay; conditions: compound 10 µM; lower values = higher affinity; below 35% = significant binding
T7 construct: purchased DiscoverX (KINOMEscan service); host or cells: E. coli BL21-derived host (T7 phage) or HEK-293
Outline: as §1

CDK2 = biological target: T8, CDK2 (Homo sapiens, UniProt P24941); assay: DiscoverX KINOMEscan competition binding assay; conditions: compound 10 µM; lower values = higher affinity; below 35% = significant binding
T8 construct: purchased DiscoverX (KINOMEscan service); host or cells: E. coli BL21-derived host (T7 phage) or HEK-293
Outline: as §1

EGFR [4] = biological target: T1, EGFR; assay: Eurofins in vitro kinase inhibition assay; format: biochemical; conditions: compound 20 µM; mean (SD); above 50% significant, 25-50% weak
Outline: (§2)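 Read-out is percent inhibition of control activity, given as mean (SD), with each compound tested at 20 µM. EGFR, ErbB2 and BRAF phosphorylation of a substrate analog was measured in the presence of ATP, while PI3K product PIP3 was quantified by HTRF competition with biotinylated PIP3.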

BRAF [5] = biological target: T3, BRAF; assay: Eurofins in vitro kinase inhibition assay; format: biochemical; conditions: compound 20 µM; mean (SD); above 50% significant, 25-50% weak
Outline: as §2

ErbB2 [6] = biological target: T4, ErbB2; assay: Eurofins in vitro kinase inhibition assay; format: biochemical; conditions: compound 20 µM; mean (SD); above 50% significant, 25-50% weak
Outline: as §2

PI3K [7] = biological target: T9, PI3K (Homo sapiens, UniProt P42336); assay: DiscoverX KINOMEscan competition binding assay; parameters: purchased DiscoverX (KINOMEscan service); host or cells: E. coli BL21-derived host (T7 phage) or HEK-293; conditions: compound 10 µM; lower values = higher affinity; below 35% = significant binding
Outline: as §1

PI3K [8] = biological target: T9, PI3K; assay: Eurofins in vitro kinase inhibition assay (HTRF, PIP3 displacement); format: biochemical; parameters: purchased Eurofins Cerep (contract assay); conditions: compound 20 µM; mean (SD); above 50% significant, 25-50% weak
Outline: as §2

T4 sequence (P04626 23-1255): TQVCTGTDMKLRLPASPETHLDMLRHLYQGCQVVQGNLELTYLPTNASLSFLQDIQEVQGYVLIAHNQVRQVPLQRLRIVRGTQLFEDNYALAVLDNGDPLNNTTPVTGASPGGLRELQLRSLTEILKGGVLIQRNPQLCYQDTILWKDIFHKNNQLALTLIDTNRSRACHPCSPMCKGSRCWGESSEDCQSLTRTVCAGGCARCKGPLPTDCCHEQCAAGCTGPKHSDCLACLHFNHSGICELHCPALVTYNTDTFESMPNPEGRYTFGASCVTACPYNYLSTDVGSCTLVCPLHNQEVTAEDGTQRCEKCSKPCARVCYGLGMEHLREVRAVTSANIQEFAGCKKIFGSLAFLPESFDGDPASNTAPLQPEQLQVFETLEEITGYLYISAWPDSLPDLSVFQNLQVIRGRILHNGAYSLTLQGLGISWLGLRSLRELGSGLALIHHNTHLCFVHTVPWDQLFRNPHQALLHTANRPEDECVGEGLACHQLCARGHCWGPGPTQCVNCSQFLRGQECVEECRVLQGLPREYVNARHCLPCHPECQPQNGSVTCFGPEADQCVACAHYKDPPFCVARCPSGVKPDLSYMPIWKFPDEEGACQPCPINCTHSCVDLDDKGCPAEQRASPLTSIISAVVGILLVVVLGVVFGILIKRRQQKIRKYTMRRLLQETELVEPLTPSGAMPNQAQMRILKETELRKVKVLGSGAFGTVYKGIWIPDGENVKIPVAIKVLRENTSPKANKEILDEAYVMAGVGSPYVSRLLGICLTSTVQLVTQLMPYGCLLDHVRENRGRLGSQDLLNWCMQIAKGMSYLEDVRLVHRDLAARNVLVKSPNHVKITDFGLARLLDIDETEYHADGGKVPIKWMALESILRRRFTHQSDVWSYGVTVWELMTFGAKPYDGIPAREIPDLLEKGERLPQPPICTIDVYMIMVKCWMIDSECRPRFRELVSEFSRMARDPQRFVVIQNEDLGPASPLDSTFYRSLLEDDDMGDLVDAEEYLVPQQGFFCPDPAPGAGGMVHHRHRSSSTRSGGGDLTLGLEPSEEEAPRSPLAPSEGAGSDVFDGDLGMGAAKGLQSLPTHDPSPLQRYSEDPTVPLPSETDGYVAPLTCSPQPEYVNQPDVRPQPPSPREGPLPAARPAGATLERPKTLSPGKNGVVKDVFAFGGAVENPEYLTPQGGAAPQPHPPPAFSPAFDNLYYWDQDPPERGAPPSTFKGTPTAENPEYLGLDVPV
T3 sequence (P15056 whole entry): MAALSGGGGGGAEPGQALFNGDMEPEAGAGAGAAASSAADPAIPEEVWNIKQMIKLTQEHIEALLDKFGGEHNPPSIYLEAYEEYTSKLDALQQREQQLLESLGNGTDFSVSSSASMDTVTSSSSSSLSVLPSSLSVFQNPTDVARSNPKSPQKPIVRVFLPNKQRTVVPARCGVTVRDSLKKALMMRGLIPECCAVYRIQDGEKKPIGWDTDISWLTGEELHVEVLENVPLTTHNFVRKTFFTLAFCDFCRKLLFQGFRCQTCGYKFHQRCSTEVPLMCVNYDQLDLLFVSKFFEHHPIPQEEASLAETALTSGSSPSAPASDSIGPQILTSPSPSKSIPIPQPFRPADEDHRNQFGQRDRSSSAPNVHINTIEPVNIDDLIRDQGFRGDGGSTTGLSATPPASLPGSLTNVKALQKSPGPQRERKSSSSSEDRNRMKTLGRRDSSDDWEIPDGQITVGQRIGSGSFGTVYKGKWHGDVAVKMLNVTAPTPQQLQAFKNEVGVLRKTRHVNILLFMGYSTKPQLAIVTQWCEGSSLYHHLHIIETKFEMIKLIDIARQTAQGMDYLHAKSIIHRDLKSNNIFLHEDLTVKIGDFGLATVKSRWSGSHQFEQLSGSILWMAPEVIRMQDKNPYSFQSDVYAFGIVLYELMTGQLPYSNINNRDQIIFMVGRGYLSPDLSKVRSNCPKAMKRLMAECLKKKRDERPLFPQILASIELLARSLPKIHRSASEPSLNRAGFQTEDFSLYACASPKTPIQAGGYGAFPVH
T1 sequence (P00533 25-1210): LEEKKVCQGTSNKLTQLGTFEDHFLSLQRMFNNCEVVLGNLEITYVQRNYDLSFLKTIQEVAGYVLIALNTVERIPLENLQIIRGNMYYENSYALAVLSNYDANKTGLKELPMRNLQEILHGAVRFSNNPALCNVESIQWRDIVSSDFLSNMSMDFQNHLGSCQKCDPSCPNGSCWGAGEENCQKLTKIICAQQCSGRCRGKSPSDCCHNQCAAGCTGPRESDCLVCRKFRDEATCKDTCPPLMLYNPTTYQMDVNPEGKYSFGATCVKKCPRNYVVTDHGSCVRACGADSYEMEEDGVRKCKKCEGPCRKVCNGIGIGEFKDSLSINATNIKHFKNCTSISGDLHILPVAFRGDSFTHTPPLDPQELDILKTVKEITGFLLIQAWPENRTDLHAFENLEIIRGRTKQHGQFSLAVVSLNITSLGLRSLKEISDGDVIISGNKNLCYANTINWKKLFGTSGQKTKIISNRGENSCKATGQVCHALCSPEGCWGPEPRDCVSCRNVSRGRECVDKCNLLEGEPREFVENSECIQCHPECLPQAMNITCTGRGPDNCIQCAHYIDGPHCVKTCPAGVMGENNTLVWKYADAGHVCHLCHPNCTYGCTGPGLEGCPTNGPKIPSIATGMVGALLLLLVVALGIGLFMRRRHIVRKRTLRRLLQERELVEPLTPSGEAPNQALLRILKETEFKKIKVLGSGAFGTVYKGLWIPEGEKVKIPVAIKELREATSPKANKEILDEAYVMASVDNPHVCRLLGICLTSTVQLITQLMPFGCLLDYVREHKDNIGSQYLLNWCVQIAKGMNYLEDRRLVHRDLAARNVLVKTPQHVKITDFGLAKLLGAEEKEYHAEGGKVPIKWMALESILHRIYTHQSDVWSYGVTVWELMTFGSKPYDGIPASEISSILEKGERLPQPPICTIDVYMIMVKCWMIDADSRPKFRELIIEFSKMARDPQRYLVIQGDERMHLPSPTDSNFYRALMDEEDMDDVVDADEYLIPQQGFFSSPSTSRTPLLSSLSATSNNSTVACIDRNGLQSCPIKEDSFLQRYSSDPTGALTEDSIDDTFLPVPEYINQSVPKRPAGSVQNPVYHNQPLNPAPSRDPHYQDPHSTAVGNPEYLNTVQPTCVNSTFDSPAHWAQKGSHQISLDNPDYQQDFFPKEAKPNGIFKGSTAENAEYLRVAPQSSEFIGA
T2 sequence (P35968 20-1356): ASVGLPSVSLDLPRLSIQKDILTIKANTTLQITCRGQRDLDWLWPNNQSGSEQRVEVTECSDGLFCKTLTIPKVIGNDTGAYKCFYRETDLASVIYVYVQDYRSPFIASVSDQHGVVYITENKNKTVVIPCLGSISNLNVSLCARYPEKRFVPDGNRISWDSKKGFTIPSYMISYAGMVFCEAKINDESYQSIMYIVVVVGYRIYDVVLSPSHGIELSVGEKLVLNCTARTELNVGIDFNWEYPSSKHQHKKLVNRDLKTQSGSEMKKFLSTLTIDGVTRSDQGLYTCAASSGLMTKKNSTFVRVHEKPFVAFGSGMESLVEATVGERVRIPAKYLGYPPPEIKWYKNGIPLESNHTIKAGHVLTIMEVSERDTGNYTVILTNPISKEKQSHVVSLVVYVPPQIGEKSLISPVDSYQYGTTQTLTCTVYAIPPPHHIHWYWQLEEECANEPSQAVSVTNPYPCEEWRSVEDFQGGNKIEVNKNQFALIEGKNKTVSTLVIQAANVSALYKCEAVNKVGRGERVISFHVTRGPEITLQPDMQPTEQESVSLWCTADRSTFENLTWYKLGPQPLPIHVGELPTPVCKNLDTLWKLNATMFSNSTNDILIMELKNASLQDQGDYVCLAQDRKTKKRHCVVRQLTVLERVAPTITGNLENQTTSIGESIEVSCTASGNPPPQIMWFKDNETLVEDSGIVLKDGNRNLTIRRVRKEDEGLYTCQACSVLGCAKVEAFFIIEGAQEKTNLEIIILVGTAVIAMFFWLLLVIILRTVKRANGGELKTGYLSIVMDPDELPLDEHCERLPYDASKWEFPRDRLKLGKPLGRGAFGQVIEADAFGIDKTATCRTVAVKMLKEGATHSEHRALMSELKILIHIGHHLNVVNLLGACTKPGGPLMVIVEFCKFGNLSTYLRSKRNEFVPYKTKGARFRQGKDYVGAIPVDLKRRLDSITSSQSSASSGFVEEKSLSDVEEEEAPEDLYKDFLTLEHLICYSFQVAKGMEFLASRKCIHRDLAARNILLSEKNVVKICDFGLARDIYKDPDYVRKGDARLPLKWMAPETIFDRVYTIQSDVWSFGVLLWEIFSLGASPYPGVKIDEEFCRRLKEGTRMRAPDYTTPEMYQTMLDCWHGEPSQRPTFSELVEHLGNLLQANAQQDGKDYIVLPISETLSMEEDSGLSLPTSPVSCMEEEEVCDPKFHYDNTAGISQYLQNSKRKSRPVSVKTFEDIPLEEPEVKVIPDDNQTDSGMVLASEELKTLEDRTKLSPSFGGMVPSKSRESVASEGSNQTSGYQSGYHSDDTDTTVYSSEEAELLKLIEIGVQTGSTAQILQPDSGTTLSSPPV
T5 sequence (Q16539 whole entry): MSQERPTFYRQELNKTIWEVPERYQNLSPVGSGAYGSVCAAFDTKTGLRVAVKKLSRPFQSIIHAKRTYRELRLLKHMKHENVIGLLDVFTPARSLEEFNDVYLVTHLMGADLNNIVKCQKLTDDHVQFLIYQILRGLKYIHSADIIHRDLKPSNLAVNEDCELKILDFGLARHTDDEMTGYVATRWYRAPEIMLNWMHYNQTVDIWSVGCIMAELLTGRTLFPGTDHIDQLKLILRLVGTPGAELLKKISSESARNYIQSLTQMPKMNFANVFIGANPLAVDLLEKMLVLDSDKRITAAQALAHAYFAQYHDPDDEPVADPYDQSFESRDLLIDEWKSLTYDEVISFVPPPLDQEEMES

Compound: Cc1nc(Nc2ncc(C(=O)Nc3c(C)cccc3Cl)s2)cc(N2CCN(CCO)CC2)n1 [dasatinib]
- kinase binding spectrum (panel of 290 kinases; TKs): binds to a broad spectrum of TKs with high affinity

Compound: CCN(CC)CCNC(=O)c1c(C)[nH]c(/C=C2\C(=O)Nc3ccc(F)cc32)c1C [Sunitinib]
- fraction of kinases bound in a panel (panel of 290 kinases; panel of 290 kinases): more than 50%

Compound: Cc1ccc(-n2cnnn2)cc1NC(=O)NCC1CC1 [DS44738]
- % control, EGFR (DiscoverX) (EGFR [1]): 100 % control
- % control, VEGFR2 (DiscoverX) (VEGFR2): 100 % control
- % control, VEGFR2 (DiscoverX) (VEGFR2; listed as K001MM009): 98 % control
- % control, BRAF (DiscoverX) (BRAF [2]): 100 % control
- % control, BRAF (DiscoverX) (BRAF [2]; listed as K001MM009): 96 % control
- % control, ErbB2 (DiscoverX) (ErbB2 [3]): 91 % control
- % control, ErbB2 (DiscoverX) (ErbB2 [3]; listed as K001MM009): 98 % control
- % control, p38α (DiscoverX) (p38α): 100 % control
- % control, LCK (DiscoverX) (LCK): 100 % control
- % control, MET (DiscoverX) (MET): 84 % control
- % control, CDK2 (DiscoverX) (CDK2): 100 % control
- % inhibition of control activity, EGFR (Eurofins) (EGFR [4]): 4.4 (14.0) % inhibition
- % inhibition of control activity, BRAF (Eurofins) (BRAF [5]): -20.8 (0.4) % inhibition
- % inhibition of control activity, ErbB2 (Eurofins) (ErbB2 [6]): 10.5 (23.6) % inhibition
- % control, PI3K (DiscoverX) (PI3K [7]): 94 % control
- % inhibition of control activity, PI3K (Eurofins) (PI3K [8]): 0.4 (1.7) % inhibition

— PMC7865522, “Analyzing Kinase Similarity in Small Molecule and Protein Structural Space to Explore the Limits of Multi-Target Screening” (Molecules, 2021)
